Results: article PMC4012464, “Design, Synthesis and Biological Evaluation of Tasiamide Analogues as Tumor Inhibitors” (Marine Drugs, 2014)
Like-named read-outs stand apart in the source and are kept apart here. Non-standard residues stand in square brackets, D forms with d. Residues, ends and D or L forms follow the SMILES beside them. *: point of attachment. Pentanoyl(2S-OH,3S-Me) = CC[C@H](C)[C@H](O)C(=O)*; Tetrahydroisoquinolin(2-yl) = c1ccc2c(c1)CCN(*)C2; dNMeF = CN[C@H](Cc1ccccc1)C(=O)O; NMeQ = CN[C@@H](CCC(N)=O)C(=O)O; Tic = O=C(O)[C@@H]1Cc2ccccc2CN1; X1 = CN(C)[C@H](CCC(N)=O)C(=O)*; dNMeQ = CN[C@H](CCC(N)=O)C(=O)O; NMeA = CN[C@@H](C)C(=O)O; Pentanoyl = CCCCC(=O)*; NHBn = c1ccc(CN*)cc1; Glycolyl = O=C(CO)*; NHPh = c1ccc(N*)cc1; OBn = c1ccc(CO*)cc1

Legend:
[1] = test system: A549, human non-small cell lung tumor cell line; test: cells; assay type: cell-based; details: growth inhibition after 72 h of drug exposure, SRB staining, A515, means ± standard deviation from three independent experiments, read-out: In vitro inhibitory activity IC50, A549
Procedure: (§1) All of the prepared analogues (S1–S4, C1–C9, N1–N2, M1–M3) were tested for their in vitro anticancer activities against KB and A549 cell lines. Briefly, cells were seeded into 96-well plates and cultured overnight, treated with tested samples for 72 h. Then, the cells were fixed with 10% trichloroacetic acid (100 µL) and stained with sulforhodamine B (Sigma, St. Louis, MO, USA). The sulforhodamine B (100 µL) in the cells was dissolved in 10 mmol/L Tris-HCl (150 µL) and measured at 515 nm using a multiwell spectrophotometer (VERSAmax, Molecular Devices, Sunnyvale, CA, USA). The inhibition rate on cell proliferation was calculated for each well as (A515control cells − A515treated cells)/A515control cells × 100% (A515: optical density value at 515 nm). The average IC50 values were determined by the Logit method from at least three independent tests.

[2] = test system: KB, human nasopharyngeal carcinoma cell line; test: cells; assay type: cell-based; details: growth inhibition after 72 h of drug exposure, SRB staining, A515, means ± standard deviation from three independent experiments, read-out: In vitro inhibitory activity IC50, KB
Procedure: as §1

[3] = test system: human colon carcinoma (LoVo) cell line; details: natural product isolated from Symploca sp.; cited from earlier work
Excerpt: (§2) Marine cyanobacteria are a well-known prolific source of novel bioactive compounds [1, 2, 3], most of which are linear or cyclic (depsi)peptides with distinctive structures. […] The first total synthesis of tasiamide was reported by our group in 2008.

[4] = test system: human nasopharyngeal carcinoma (KB) cell line; details: natural product isolated from Symploca sp.; cited from earlier work
Excerpt: as §2

IC50 ([1]; Homo sapiens) [µM]	IC50 ([2]; Homo sapiens) [µM]	SMILES	IC50 [1] [µM]	IC50 [2] [µM]	Cytotoxicity IC50, LoVo [3] [µg/mL]	Cytotoxicity IC50, KB [4] [µg/mL]
		CC[C@H](C)[C@H](O)C(=O)N[C@@H](CC(C)C)C(=O)N(C)[C@@H](CCC(N)=O)C(=O)N[C@H](C(=O)NCC(=O)N(C)[C@H](Cc1ccccc1)C(=O)Nc1ccccc1)[C@@H](C)CC [Compound C1, HO-Hmp-Leu-N-Me-Gln-Ile-Gly-N-Me-D-Phe-NH-Ph] ({Pentanoyl(2S-OH,3S-Me)}-L[NMeQ]IG[dNMeF]-NHPh)	4.17 ± 0.51	3.21 ± 0.6		
		CC[C@H](C)[C@H](O)C(=O)N[C@@H](CC(C)C)C(=O)N(C)[C@H](CCC(N)=O)C(=O)N[C@H](C(=O)NCC(=O)N(C)[C@H](Cc1ccccc1)C(=O)Nc1ccccc1)[C@@H](C)CC [Compound C2, HO-Hmp-Leu-N-Me-D-Gln-Ile-Gly-N-Me-D-Phe-NH-Ph] ({Pentanoyl(2S-OH,3S-Me)}-L[dNMeQ]IG[dNMeF]-NHPh)	> 50	8.26 ± 1.22		
		CC[C@H](C)[C@H](O)C(=O)N[C@@H](CC(C)C)C(=O)N(C)[C@@H](CCC(N)=O)C(=O)N[C@H](C(=O)NCC(=O)N(C)[C@H](Cc1ccccc1)C(=O)NCc1ccccc1)[C@@H](C)CC [Compound C3, HO-Hmp-Leu-N-Me-Gln-Ile-Gly-N-Me-D-Phe-NH-Bn] ({Pentanoyl(2S-OH,3S-Me)}-L[NMeQ]IG[dNMeF]-NHBn)	2.24 ± 0.44	2.08 ± 0.33		
		CC[C@H](C)[C@H](O)C(=O)N[C@@H](CC(C)C)C(=O)N(C)[C@H](CCC(N)=O)C(=O)N[C@H](C(=O)NCC(=O)N(C)[C@H](Cc1ccccc1)C(=O)NCc1ccccc1)[C@@H](C)CC [Compound C4, HO-Hmp-Leu-N-Me-D-Gln-Ile-Gly-N-Me-D-Phe-NH-Bn] ({Pentanoyl(2S-OH,3S-Me)}-L[dNMeQ]IG[dNMeF]-NHBn)	8.48 ± 1.39	1.29 ± 0.31		
		CC[C@H](C)[C@H](O)C(=O)N[C@@H](CC(C)C)C(=O)N(C)[C@@H](CCC(N)=O)C(=O)N[C@H](C(=O)NCC(=O)N(C)[C@H](Cc1ccccc1)C(=O)N1Cc2ccccc2C[C@H]1C(=O)OC)[C@@H](C)CC [Compound C5, HO-Hmp-Leu-N-Me-Gln-Ile-Gly-N-Me-D-Phe-NH-MTC] ({Pentanoyl(2S-OH,3S-Me)}-L[NMeQ]IG[dNMeF][Tic]-OMe)	5.24 ± 1.12	2.45 ± 0.41		
		CC[C@H](C)[C@H](O)C(=O)N[C@@H](CC(C)C)C(=O)N(C)[C@H](CCC(N)=O)C(=O)N[C@H](C(=O)NCC(=O)N(C)[C@H](Cc1ccccc1)C(=O)N1Cc2ccccc2C[C@H]1C(=O)OC)[C@@H](C)CC [Compound C6, HO-Hmp-Leu-N-Me-D-Gln-Ile-Gly-N-Me-D-Phe-NH-MTC] ({Pentanoyl(2S-OH,3S-Me)}-L[dNMeQ]IG[dNMeF][Tic]-OMe)	12.9 ± 1.32	8.52 ± 1.41		
		CC[C@H](C)[C@H](O)C(=O)N[C@@H](CC(C)C)C(=O)N(C)[C@@H](CCC(N)=O)C(=O)N[C@H](C(=O)NCC(=O)N(C)[C@H](Cc1ccccc1)C(=O)N1CCc2ccccc2C1)[C@@H](C)CC [Compound C7, HO-Hmp-Leu-N-Me-Gln-Ile-Gly-N-Me-D-Phe-NH-TIQ] ({Pentanoyl(2S-OH,3S-Me)}-L[NMeQ]IG[dNMeF]-{Tetrahydroisoquinolin(2-yl)})	3.67 ± 0.66	3.8 ± 0.46		
		CC[C@H](C)[C@H](O)C(=O)N[C@@H](CC(C)C)C(=O)N(C)[C@H](CCC(N)=O)C(=O)N[C@H](C(=O)NCC(=O)N(C)[C@H](Cc1ccccc1)C(=O)N1CCc2ccccc2C1)[C@@H](C)CC [Compound C8, HO-Hmp-Leu-N-Me-D-Gln-Ile-Gly-N-Me-D-Phe-NH-TIQ] ({Pentanoyl(2S-OH,3S-Me)}-L[dNMeQ]IG[dNMeF]-{Tetrahydroisoquinolin(2-yl)})	> 50	3.64 ± 0.55		
		CC[C@H](C)[C@H](O)C(=O)N[C@@H](CC(C)C)C(=O)N(C)[C@@H](C)C(=O)N[C@H](C(=O)NCC(=O)N(C)[C@H](Cc1ccccc1)C(=O)NCc1ccccc1)[C@@H](C)CC [Compound C9, HO-Hmp-Leu-N-Me-Ala-Ile-Gly-N-Me-D-Phe-NH-Bn] ({Pentanoyl(2S-OH,3S-Me)}-L[NMeA]IG[dNMeF]-NHBn)	> 50	> 50		
		CC[C@H](C)[C@H](O)C(=O)N[C@@H](CC(C)C)C(=O)N[C@H](CCC(N)=O)C(=O)N[C@H](C(=O)NCC(=O)N(C)[C@H](Cc1ccccc1)C(=O)NCc1ccccc1)[C@@H](C)CC [Compound M1, HO-Hmp-Leu-D-Gln-Ile-Gly-N-Me-D-Phe-NH-Bn] ({Pentanoyl(2S-OH,3S-Me)}-L[dQ]IG[dNMeF]-NHBn)	> 50	> 50		
		CC[C@H](C)[C@H](O)C(=O)N[C@@H](CC(C)C)C(=O)N(C)[C@H](CCC(N)=O)C(=O)N[C@H](C(=O)NCC(=O)N[C@H](Cc1ccccc1)C(=O)NCc1ccccc1)[C@@H](C)CC [Compound M2, HO-Hmp-Leu-N-Me-D-Gln-Ile-Gly-D-Phe-NH-Bn] ({Pentanoyl(2S-OH,3S-Me)}-L[dNMeQ]IG[dF]-NHBn)	> 50	> 50		
		CC[C@H](C)[C@H](O)C(=O)N[C@@H](CC(C)C)C(=O)N[C@H](CCC(N)=O)C(=O)N[C@H](C(=O)NCC(=O)N[C@H](Cc1ccccc1)C(=O)NCc1ccccc1)[C@@H](C)CC [Compound M3, HO-Hmp-Leu-D-Gln-Ile-Gly-D-Phe-NH-Bn] ({Pentanoyl(2S-OH,3S-Me)}-L[dQ]IG[dF]-NHBn)	> 50	> 50		
		CCCCC(=O)N[C@@H](CC(C)C)C(=O)N(C)[C@H](CCC(N)=O)C(=O)N[C@H](C(=O)NCC(=O)N(C)[C@H](Cc1ccccc1)C(=O)NCc1ccccc1)[C@@H](C)CC [Compound N1, n-Pentanoyl-Leu-N-Me-D-Gln-Ile-Gly-N-Me-D-Phe-NH-Bn] (Pentanoyl-L[dNMeQ]IG[dNMeF]-NHBn)	> 50	> 50		
		CC[C@H](C)[C@H](NC(=O)[C@@H](CCC(N)=O)N(C)C(=O)[C@H](CC(C)C)NC(=O)CO)C(=O)NCC(=O)N(C)[C@H](Cc1ccccc1)C(=O)NCc1ccccc1 [Compound N2, 2-Hydroxyacetyl-Leu-N-Me-D-Gln-Ile-Gly-N-Me-D-Phe-NH-Bn] (Glycolyl-L[dNMeQ]IG[dNMeF]-NHBn)	> 50	> 50		
		CC[C@H](C)[C@H](NC(=O)[C@@H](CCC(N)=O)N(C)C)C(=O)NCC(=O)N(C)[C@H](Cc1ccccc1)C(=O)N1CCC[C@H]1C(=O)OC [Compound S1, N,N-Me2-D-Gln-Ile-Gly-N-Me-D-Phe-Pro-OMe] (X1-IG[dNMeF]P-OMe)	> 50	> 50		
		CC[C@H](C)[C@@H](C(=O)NCC(=O)N(C)[C@H](Cc1ccccc1)C(=O)N1CCC[C@H]1C(=O)OC)N(C)C [Compound S2, N,N-Me2-Ile-Gly-N-Me-D-Phe-Pro-OMe]	> 50	> 50		
		CC[C@H](C)[C@H](O)C(=O)N[C@@H](CC(C)C)C(=O)N(C)[C@H](CCC(N)=O)C(=O)N[C@H](C(=O)OCc1ccccc1)[C@@H](C)CC [Compound S3, HO-Hmp-Leu-N-Me-D-Gln-Ile-OBn]	> 50	> 50		
		CC[C@H](C)[C@H](O)C(=O)N[C@@H](CC(C)C)C(=O)N(C)[C@H](CCC(N)=O)C(=O)N[C@H](C(=O)NCC(=O)OCc1ccccc1)[C@@H](C)CC [Compound S4, HO-Hmp-Leu-N-Me-D-Gln-Ile-Gly-OBn] ({Pentanoyl(2S-OH,3S-Me)}-L[dNMeQ]IG-OBn)	> 50	> 50		
		CC[C@H](C)[C@H](O)C(=O)N[C@@H](CC(C)C)C(=O)N(C)[C@H](CCC(N)=O)C(=O)N[C@H](C(=O)NCC(=O)N(C)[C@H](Cc1ccccc1)C(=O)N1CCC[C@H]1C(=O)OC)[C@@H](C)CC [Compound T2, tasiamide] ({Pentanoyl(2S-OH,3S-Me)}-L[dNMeQ]IG[dNMeF]P-OMe)	> 50	0.58 ± 0.07	3.47	0.48
0.99 ± 0.09	0.85 ± 0.08	COc1cc([C@@H]2c3cc4c(cc3[C@@H](O[C@@H]3O[C@@H]5CO[C@@H](C)O[C@H]5[C@H](O)[C@H]3O)[C@H]3COC(=O)[C@H]23)OCO4)cc(OC)c1O [Etoposide, etoposide, reference compound]				
